Results published in US10428080B2, “TBK/IKK inhibitor compounds and uses thereof” (Merck Patent GmbH, priority 2015, dated 2019).
Counter-ions that a name gives are not always drawn.

What was measured:
TBK1 = target: T1, TBK1 (Homo sapiens, UniProt Q9UHD2); test: TBK Biochemical Assay; details: read-out: TBK1 IC50
T1 sequence (Q9UHD2 1-729): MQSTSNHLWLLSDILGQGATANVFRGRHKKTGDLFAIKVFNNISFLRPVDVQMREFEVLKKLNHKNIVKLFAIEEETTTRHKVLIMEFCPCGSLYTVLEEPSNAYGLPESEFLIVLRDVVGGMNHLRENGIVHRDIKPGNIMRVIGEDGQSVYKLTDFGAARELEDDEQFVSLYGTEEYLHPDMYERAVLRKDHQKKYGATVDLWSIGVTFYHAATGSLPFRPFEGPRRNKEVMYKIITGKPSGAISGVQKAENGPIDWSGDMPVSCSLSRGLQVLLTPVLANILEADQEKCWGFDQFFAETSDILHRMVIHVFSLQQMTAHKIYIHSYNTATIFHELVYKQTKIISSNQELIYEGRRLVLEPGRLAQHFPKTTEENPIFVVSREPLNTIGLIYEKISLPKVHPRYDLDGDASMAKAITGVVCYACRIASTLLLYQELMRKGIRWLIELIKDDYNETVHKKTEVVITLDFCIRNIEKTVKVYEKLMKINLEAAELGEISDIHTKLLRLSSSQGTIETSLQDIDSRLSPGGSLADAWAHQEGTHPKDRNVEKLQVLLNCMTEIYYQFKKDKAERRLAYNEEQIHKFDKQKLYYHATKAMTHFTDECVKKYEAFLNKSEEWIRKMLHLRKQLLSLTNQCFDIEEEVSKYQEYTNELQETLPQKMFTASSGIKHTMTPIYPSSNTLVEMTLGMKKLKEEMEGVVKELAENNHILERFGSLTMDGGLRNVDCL
Procedure: Example 482: TBK Biochemical Assay
(§1) Test compounds were transferred into Labcyte polypropylene 384 well plates (P055-25) and diluted to 3 mM using DMSO. 3 mM test compounds were dispensed using Labcyte ECHO dose response module into Greiner 784075 plates (columns 3-12 and 13-22, 10 point 1:4) so that high concentration was 30 uM final. 100 uM of a reference compound (1 uM final high concentration). Backfilling was performed if necessary so that all wells contain 1% DMSO final: […]
(§2) add 75 nl DMSO/well into columns 1, 2 and 24 using Labcyte Echo. add 75 nl 1.0 mM staurosporine/well into column 23 using Labcyte Echo ([…]) add 4.5 ul enzyme/well using multidrop dispenser add 3 ul substrate/well using multidrop dispenser incubate at 25° C. in Heidolph incubator for 90 min. add 7.5 ul 2× stop buffer using multidrop dispenser read on labchip ez reader II using TBK1.job
(§3) Raw data files were opened in the Caliper LabChip Reviewer program (Version 3.0.265.0 SP2) and peak assignments were adjusted to reflect “substrate first” with the software's post-run analysis options. A spline-fit baseline was applied using the software's analysis algorithm.

IKKε = target: T2, IKKε (Homo sapiens, UniProt Q14164); test: IKKe Biochemical Assay; details: read-out: IKKε IC50
T2 sequence (Q14164 1-716): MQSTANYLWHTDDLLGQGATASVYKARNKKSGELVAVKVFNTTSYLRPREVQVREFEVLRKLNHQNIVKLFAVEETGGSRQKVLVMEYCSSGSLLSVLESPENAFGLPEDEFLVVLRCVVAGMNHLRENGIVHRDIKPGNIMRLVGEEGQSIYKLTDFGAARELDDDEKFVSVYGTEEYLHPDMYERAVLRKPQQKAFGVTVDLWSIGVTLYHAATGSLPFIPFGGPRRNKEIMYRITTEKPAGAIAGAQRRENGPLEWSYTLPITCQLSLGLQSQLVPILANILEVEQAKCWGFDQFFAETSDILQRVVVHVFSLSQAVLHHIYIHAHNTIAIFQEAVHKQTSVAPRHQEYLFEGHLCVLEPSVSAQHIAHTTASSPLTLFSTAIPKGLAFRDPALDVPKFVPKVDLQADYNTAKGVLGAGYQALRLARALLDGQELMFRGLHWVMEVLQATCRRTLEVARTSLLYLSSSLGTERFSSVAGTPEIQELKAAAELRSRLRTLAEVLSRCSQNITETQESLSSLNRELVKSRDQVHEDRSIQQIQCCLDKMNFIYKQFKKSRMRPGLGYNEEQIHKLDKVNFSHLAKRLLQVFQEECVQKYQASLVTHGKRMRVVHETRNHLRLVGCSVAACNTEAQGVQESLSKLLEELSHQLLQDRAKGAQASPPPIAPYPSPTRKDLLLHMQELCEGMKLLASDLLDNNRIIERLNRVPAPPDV
Procedure: as §1, with “(Greiner” for “Greiner”
as §2, with “C.” for “C. in Heidolph incubator”, “buffer” for “buffer using multidrop dispenser”, “IKKε. job” for “TBK1.job”
as §3

IC50 (TBK1) [nM]	IC50 (IKKε) [nM]	Compound
< 100	< 100	CN(C)C(=O)c1ccc(-c2cc3nccc(-c4ccc(N5CC[C@H](F)C5)c(C#N)c4)c3o2)nc1 (single isomer, unassigned) [Compound 273, 6-(7-(3-cyano-4-(3-fluoropyrrolidin-1-yl)phenyl)furo[3,2-b]pyridin-2-yl)-N,N-dimethylnicotinamide hydrochloride]
100 to 1000	100 to 1000	N#Cc1cc(-c2ccnc3cc(-c4ccc(C(=O)N[C@@H]5CCNC[C@@H]5F)cc4F)oc23)ccc1NC1CCOCC1 (stereo in doubt) [Compound 252, 4-(7-(3-cyano-4-(tetrahydro-2H-pyran-4-ylamino)phenyl)furo[3,2-b]pyridin-2-yl)-3-fluoro-N-(3-fluoropiperidin-4-yl)benzamide hydrochloride]
< 100	< 100	COc1cc(C(=O)N2CC3CCC2CO3)ccc1-c1cc2nccc(-c3ccc(OC4CCOCC4)c(C#N)c3)c2o1 (stereo not shown) [Compound 4, 5-{2-[2-Methoxy-4-(2-oxa-5-aza-bicyclo[2.2.2]octane-5-carbonyl)-phenyl]-furo[3,2-b]pyridin-7-yl}-2-(tetrahydro-pyran-4-yloxy)-benzonitrile]
< 100	< 100	COc1cc(C(=O)N2CCC(OC)CC2)ccc1-c1cc2nccc(-c3ccc(OC4CCOCC4)c(C#N)c3)c2o1 [Compound 12, 5-(2-[2-Methoxy-4-(4-methoxy-piperidine-1-carbonyl)-phenyl]-furo[3,2-b]pyridin-7-yl}-2-(tetrahydro-pyran-4-yloxy)-benzonitrile]
< 100	< 100	COc1cc(C(=O)N2CCC(C)(O)C2)ccc1-c1cc2nccc(-c3ccc(OC4CCOCC4)c(C#N)c3)c2o1 (stereo not shown) [Compound 19, 5-{2-[4-(3-Hydroxy-3-methyl-pyrrolidine-1-carbonyl)-2-methoxy-phenyl]-furo[3,2-b]pyridin-7-yl}-2-(tetrahydro-pyran-4-yloxy)-benzonitrile]
< 100	< 100	COc1cc(C(=O)N2CCCC(O)C2)ccc1-c1cc2nccc(-c3ccc(OC4CCOCC4)c(C#N)c3)c2o1 (stereo not shown) [Compound 22, 5-{2-[4-(3-Hydroxy-piperidine-1-carbonyl)-2-methoxy-phenyl]-furo[3,2-b]pyridin-7-yl}-2-(tetrahydro-pyran-4-yloxy)-benzonitrile]
< 100	< 100	COc1cc(C(=O)N2CC(S(C)(=O)=O)C2)ccc1-c1cc2nccc(-c3ccc(OC4CCOCC4)c(C#N)c3)c2o1 [Compound 26, 5-{2-[4-(3-Methanesulfonyl-azetidine-1-carbonyl)-2-methoxy-phenyl]-furo[3,2-b]pyridin-7-yl}-2-(tetrahydro-pyran-4-yloxy)-benzonitrile]
< 100	< 100	COc1cc(C(=O)N(C)C2CCNCC2)ccc1-c1cc2nccc(-c3ccc(OC4CCOCC4)c(C#N)c3)c2o1 [Compound 41, 4-(7-[3-Cyano-4-(tetrahydro-pyran-4-yloxy)-phenyl]-furo[3,2-b]pyridin-2-yl)-3-methoxy-N-methyl-N-piperidin-4-yl-benzamide hydrochloride]
< 100	< 100	COc1cc(C(=O)N2CCC2)ccc1-c1cc2nccc(-c3ccc(OC4CCOCC4)c(C#N)c3)c2o1 [Compound 44, 5-{2-[4-(Azetidine-1-carbonyl)-2-methoxy-phenyl]-furo[3,2-b]pyridin-7-yl}-2-(tetrahydro-pyran-4-yloxy)-benzonitrile]
< 100	< 100	COc1cc(C(=O)N2CC(C)(O)C2)ccc1-c1cc2nccc(-c3ccc(OC4CCOCC4)c(C#N)c3)c2o1 [Compound 48, 5-{2-[4-(3-Hydroxy-3-methyl-azetidine-1-carbonyl)-2-methoxy-phenyl]-furo[3,2-b]pyridin-7-yl}-2-(tetrahydro-pyran-4-yloxy)-benzonitrile]
< 100	< 100	COc1cc(C(=O)N(C)C2CCNC2)ccc1-c1cc2nccc(-c3ccc(OC4CCOCC4)c(C#N)c3)c2o1 (stereo not shown) [Compound 56, 4-{7-[3-Cyano-4-(tetrahydro-pyran-4-yloxy)-phenyl]-furo[3,2-b]pyridin-2-yl}-3-methoxy-N-methyl-N-pyrrolidin-3-yl-benzamide]
< 100	< 100	COc1cc(C(=O)N(C)C2CC2)ccc1-c1cc2nccc(-c3ccc(OC4CCOCC4)c(C#N)c3)c2o1 [Compound 60, 4-{7-[3-Cyano-4-(tetrahydro-pyran-4-yloxy)-phenyl]-furo[3,2-b]pyridin-2-yl}-N-cyclopropyl-3-methoxy-N-methyl-benzamide]
< 100	< 100	COc1cc(C(=O)N(C)C2CCN(C)C2)ccc1-c1cc2nccc(-c3ccc(OC4CCOCC4)c(C#N)c3)c2o1 (stereo not shown) [Compound 61, 4-{7-[3-Cyano-4-(tetrahydro-pyran-4-yloxy)-phenyl]-furo[3,2-b]pyridin-2-yl}-3-methoxy-N-methyl-N-(1-methyl-pyrrolidin-3-yl)-benzamide]
< 100	< 100	COc1cc(C(=O)N2C[C@H]3C[C@@H](O)C[C@H]3C2)ccc1-c1cc2nccc(-c3ccc(NC4CCOCC4)c(C#N)c3)c2o1 [Compound 81, 5-{2-[4-((3aR,5R,6aS)-5-Hydroxy-hexahydro-cyclopenta[c]pyrrole-2-carbonyl)-2-methoxy-phenyl]-furo[3,2-b]pyridin-7-yl}-2-(tetrahydro-pyran-4-ylamino)-benzonitrile]

Compound	IC50 (TBK1) [nM]	IC50 (IKKε) [nM]
COc1cc(C(=O)N2C3CCC2COC3)ccc1-c1cc2nccc(-c3ccc(OC4CCOCC4)c(C#N)c3)c2o1 [Compound 2, 5-{2-[2-Methoxy-4-(3-oxa-8-aza-bicyclo[3.2.1]octane-8-carbonyl)-phenyl]-furo[3,2-b]pyridin-7-yl}-2-(tetrahydro-pyran-4-yloxy)-benzonitrile]	< 100	< 100
COc1cc(C(=O)N2CC3CC(C2)O3)ccc1-c1cc2nccc(-c3ccc(OC4CCOCC4)c(C#N)c3)c2o1 [Compound 6, 5-{2-[2-Methoxy-4-(6-oxa-3-aza-bicyclo[3.1.1]heptane-3-carbonyl)-phenyl]-furo[3,2-b]pyridin-7-yl}-2-(tetrahydro-pyran-4-yloxy)-benzonitrile]	< 100	< 100
COc1cc(C(=O)N2C3COCC2CC(O)C3)ccc1-c1cc2nccc(-c3ccc(OC4CCOCC4)c(C#N)c3)c2o1 (stereo not shown) [Compound 66, 5-{2-[4-(7-Hydroxy-3-oxa-9-aza-bicyclo[3.3.1]nonane-9-carbonyl)-2-methoxy-phenyl]-furo[3,2-b]pyridin-7-yl}-2-(tetrahydro-pyran-4-yloxy)-benzonitrile]	< 100	< 100
